Laboratory results as given in publication PMC9146377, “Design and Synthesis of Novel Bis-Imidazolyl Phenyl Butadiyne Derivatives as HCV NS5A Inhibitors” (Pharmaceuticals, 2022).
Where two headings read alike, the source gives them in different places.

Assays:
[1] = system: HCV genotype 1b Con-1 subgenomic replicon; assay: Anti-HCV luciferase assay, genotype 1b (Con1) subgenomic replicon in Huh5-2 cells; format: cell-based, Hepatitis C virus; conditions: for EC50: mean of three experiments; for HCV Replicon 1b SI50: CC50/EC50, Huh5-2 cells
Experimental: (§1) All synthesized compounds were tested against HCV genotype 1b Con-1 subgenomic replicon in the Huh-5-2 stable cell line. Specifically, their activity against viral replication was estimated by measuring firefly luciferase, which is co-expressed by the bicistronic replicon, and their half-maximal effective concentrations (EC50) were determined. In parallel, the half-maximal cytotoxic concentrations (CC50) of the compounds were estimated, and their selective indexes (SI50: CC50/ EC50) were calculated. All novel synthesized compounds were active against HCV 1b with EC50 < 1 µM except for compound 4b (Table 3).
Huh5-2 [65] and Huh7-JFH1 [66] stable cell lines harbor the subgenomic HCV reporter replicon I389luc-ubi-neo/NS3-3′/Con1/5.1 (genotype 1b; strain Con1) and I389luc-ubi-neo/NS3-3′_dg_JFH1 (genotype 2a, JFH1 strain), respectively (kindly provided by R. Bartenschlager, Heidelberg University, Heidelberg, Germany). Huh7.5-3a and Huh7.5-4a stable cell lines harbor the subgenomic HCV reporter replicon S52-SG (Feo) (AII) (genotype 3a; S52 strain) and ED43-SG (Feo) (VYG) (genotype 4a; ED43 strain), respectively (viral constructs kindly provided by C.M. Rice, Rockefeller University, New York, NY, USA). These replicons carry as a first cistron firefly luciferase (F-Luc) and neomycin phosphotransferase genes under the translational control of the HCV internal ribosome entry site (IRES), followed by HCV NS3 to NS5B proteins under the control of the EMCV IRES.
The anti-HCV assay in replicon cells was performed by seeding 1 × 10^4 cells per well in a 96-well plate. After 24 h of incubation at 37 °C (5% CO2) and medium removal, serial dilutions of the test compounds in complete DMEM were added. Cells were lysed after 72 h, and F-Luc activity was measured. The anti-HCV assay for the full-length viral construct H77S.3/GLuc2A was performed after electroporation of Huh7-Lunet cells with viral RNA. Cells were seeded in 96-well plates, the medium was removed 24 h after electroporation, and serial dilutions of the compounds in complete DMEM were added. At 72 h post-treatment, cell supernatants were collected, and G-Luc activity was measured. In addition, the cells were lysed for total protein quantification.
Relative luminescence units (RLU) were expressed as a percentage of the respective units derived from DMSO-treated cells (control). The half-maximal effective concentration (EC50), defined as the concentration of compound that reduces luciferase signal by 50%, was calculated by dose-response curve analysis using Prism 5.0 software (GraphPad Software Inc., San Diego, CA, USA).
The F-Luc activity was measured using the Luciferase Assay System (Promega, Madison, WI, USA), as recommended by the manufacturer. The G-Luc activity was measured using 12 μM coelenterazine (Promega) in assay buffer (50 mM potassium phosphate, pH 7.4, 500 mM NaCl, 1 mM EDTA). Measurements were carried out using a GloMax 20/20 single tube luminometer (Promega) for 10 s. The F-Luc activity was normalized to the total protein amount determined using the Bradford assay reagent (Pierce, Waltham, MA, USA).

[2] = Cytotoxicity assay (intracellular ATP levels) in Huh5-2 replicon cells; format: cell-based; conditions: human, Huh5-2 cells, read-out: HCV Replicon 1b CC50
Experimental: as §1
Intracellular ATP levels were measured to determine the cytotoxicity of the compounds in the treated cells. In 96-well plates, 10^4 cells per well were seeded, incubated with serial dilutions of the compounds or DMSO as a control for 72 h at 37 °C (5% CO2) and lysed for ATP measurement. ATP levels were measured using the ViaLight HS BioAssay kit (Lonza, Basel, Switzerland) in a GloMax 20/20 single-tube luminometer (Promega) for 1 s, according to the manufacturer’s protocol. Values were normalized to total protein amounts and used to determine the compound concentration causing 50% cell death (CC50). Nonlinear regression analysis was performed using Prism 5.0 software (GraphPad Software Inc., San Diego, CA, USA).

[3] = Hepatitis C virus, Huh-5-2, 72 h, read-out: HCV Replicon 1b EC50, Huh5-2 cells, Con1 strain, F-Luc, 72 h
[4] = Hepatitis C virus, Huh-5-2, 72 h, Huh5-2 cells, Con1 strain, F-Luc, 72 h, read-out: HCV Replicon 1b EC50

SMILES	EC50 [1, 3]	CC50 at 72 h [2]	HCV Replicon 1b SI50 [1]	EC50 [1, 4]	melting point	EC50 ([1]; Huh5-2 cells, Con1 strain, F-Luc, 72 h, read-out: HCV Replicon 1b EC50)
COC(=O)N[C@H](C(=O)N1CCC[C@H]1c1ncc(-c2cccc(C#CC#Cc3cccc(-c4cnc([C@@H]5CCCN5C(=O)[C@@H](NC(=O)OC)C(C)C)[nH]4)c3)c2)[nH]1)C(C)C [Compound 1a, Dimethyl ((2S,2′S)-((2S,2′S)-((buta-1,3-diyne-1,4-diylbis(3,1-phenylene))bis(1H-imidazole-5,2-diyl))bis(pyrrolidine-2,1-diyl))bis(3-methyl-1-oxobutane-1,2diyl))dicarbamate]	166 nM	> 100000 nM	–	–	–	–
COC(=O)N[C@H](C(=O)N1CCC[C@H]1c1ncc(-c2ccc(C#CC#Cc3ccc(-c4cnc([C@@H]5CCCN5C(=O)[C@@H](NC(=O)OC)C(C)C)[nH]4)cc3)cc2)[nH]1)C(C)C [Compound 1b, Dimethyl ((2S,2′S)-((2S,2′S)-((buta-1,3-diyne-1,4-diylbis(4,1-phenylene))bis(1H-imidazole-5,2-diyl))bis(pyrrolidine-2,1-diyl))bis(3-methyl-1-oxobutane-1,2-diyl))dicarbamate]	–	> 100000 nM	>1113.58	89.8 nM	–	–
COC(=O)N[C@@H](C(=O)N1CCC[C@H]1c1ncc(-c2cccc(C#CC#Cc3cccc(-c4cnc([C@@H]5CCCN5C(=O)[C@H](NC(=O)OC)C(C)C)[nH]4)c3)c2)[nH]1)C(C)C [Compound 2a, Dimethyl ((2R,2′R)-((2S,2′S)-((buta-1,3-diyne-1,4-diylbis(3,1-phenylene))bis(1H-imidazole-5,2-diyl))bis(pyrrolidine-2,1-diyl))bis(3-methyl-1-oxobutane-1,2-diyl))dicarbamate]	–	> 100000 nM	>250.06	400 nM	103 to 105 °C	–
COC(=O)N[C@@H](C(=O)N1CCC[C@H]1c1ncc(-c2ccc(C#CC#Cc3ccc(-c4cnc([C@@H]5CCCN5C(=O)[C@H](NC(=O)OC)C(C)C)[nH]4)cc3)cc2)[nH]1)C(C)C [Compound 2b, Dimethyl ((2R,2′R)-((2S,2′S)-((buta-1,3-diyne-1,4-diylbis(4,1-phenylene))bis(1H-imidazole-5,2-diyl))bis(pyrrolidine-2,1-diyl))bis(3-methyl-1-oxobutane-1,2-diyl))dicarbamate]	–	> 100000 nM	>248.20	403 nM	–	–
CCOC(=O)N[C@H](C(=O)N1CCC[C@H]1c1ncc(-c2cccc(C#CC#Cc3cccc(-c4cnc([C@@H]5CCCN5C(=O)[C@@H](NC(=O)OCC)C(C)C)[nH]4)c3)c2)[nH]1)C(C)C [Compound 3a, Diethyl ((2S,2′S)-((2S,2′S)-((buta-1,3-diyne-1,4-diylbis(3,1-phenylene))bis(1H-imidazole-5,2-diyl))bis(pyrrolidine-2,1-diyl))bis(3-methyl-1-oxobutane-1,2-diyl))dicarbamate]	–	> 100000 nM	>629.72	159 nM	124 to 126.7 °C	–
CCOC(=O)N[C@H](C(=O)N1CCC[C@H]1c1ncc(-c2ccc(C#CC#Cc3ccc(-c4cnc([C@@H]5CCCN5C(=O)[C@@H](NC(=O)OCC)C(C)C)[nH]4)cc3)cc2)[nH]1)C(C)C [Compound 3b, Diethyl ((2S,2′S)-((2S,2′S)-((buta-1,3-diyne-1,4-diylbis(4,1-phenylene))bis(1H-imidazole-5,2-diyl))bis(pyrrolidine-2,1-diyl))bis(3-methyl-1-oxobutane-1,2-diyl))dicarbamate]	–	> 100000 nM	>297.44	336 nM	139 to 141 °C	–
CCCCOC(=O)N[C@H](C(=O)N1CCC[C@H]1c1ncc(-c2cccc(C#CC#Cc3cccc(-c4cnc([C@@H]5CCCN5C(=O)[C@@H](NC(=O)OCCCC)C(C)C)[nH]4)c3)c2)[nH]1)C(C)C [Compound 4a, Dibutyl ((2S,2′S)-((2S,2′S)-((buta-1,3-diyne-1,4-diylbis(3,1-phenylene))bis(1H-imidazole-5,2-diyl))bis(pyrrolidine-2,1-diyl))bis(3-methyl-1-oxobutane-1,2-diyl))dicarbamate]	–	> 100000 nM	>110.89	902 nM	–	–
CCCCOC(=O)N[C@H](C(=O)N1CCC[C@H]1c1ncc(-c2ccc(C#CC#Cc3ccc(-c4cnc([C@@H]5CCCN5C(=O)[C@@H](NC(=O)OCCCC)C(C)C)[nH]4)cc3)cc2)[nH]1)C(C)C [Compound 4b, Dibutyl ((2S,2′S)-((2S,2′S)-((buta-1,3-diyne-1,4-diylbis(4,1-phenylene))bis(1H-imidazole-5,2-diyl))bis(pyrrolidine-2,1-diyl))bis(3-methyl-1-oxobutane-1,2-diyl))dicarbamate]	–	> 100000 nM	–	> 1000 nM	136 to 138 °C	–
COC(=O)N[C@@H](CC(C)C)C(=O)N1CCC[C@H]1c1ncc(-c2cccc(C#CC#Cc3cccc(-c4cnc([C@@H]5CCCN5C(=O)[C@H](CC(C)C)NC(=O)OC)[nH]4)c3)c2)[nH]1 [Compound 5a, Dimethyl ((2S,2′S)-((2S,2′S)-((buta-1,3-diyne-1,4-diylbis(3,1-phenylene))bis(1H-imidazole-5,2-diyl))bis(pyrrolidine-2,1-diyl))bis(4-methyl-1-oxopentane-1,2-diyl))dicarbamate]	–	> 100000 nM	>879.51	114 nM	103.1 to 105.3 °C	–
CCOC(=O)N[C@@H](CC(C)C)C(=O)N1CCC[C@H]1c1ncc(-c2cccc(C#CC#Cc3cccc(-c4cnc([C@@H]5CCCN5C(=O)[C@H](CC(C)C)NC(=O)OCC)[nH]4)c3)c2)[nH]1 [Compound 7a, Diethyl ((2S,2′S)-((2S,2′S)-((buta-1,3-diyne-1,4-diylbis(3,1-phenylene))bis(1H-imidazole-5,2-diyl))bis(pyrrolidine-2,1-diyl))bis(4-methyl-1-oxopentane-1,2-diyl))dicarbamate]	97.8 nM	> 100000 nM	>1021.55	–	–	97.9 nM
COC(=O)N[C@H](C(=O)N1CCC[C@H]1c1ncc(-c2ccc(C#CC#Cc3ccc(-c4cnc([C@@H]5CCCN5C(=O)[C@@H](NC(=O)OC)c5ccccc5)[nH]4)cc3)cc2)[nH]1)c1ccccc1 [Compound 9b, Dimethyl ((1S,1′S)-((2S,2′S)-((buta-1,3-diyne-1,4-diylbis(4,1-phenylene))bis(1H-imidazole-5,2-diyl))bis(pyrrolidine-2,1-diyl))bis(2-oxo-1-phenylethane-2,1-diyl))dicarbamate]	–	> 100000 nM	>542.59	184 nM	–	–
COC(=O)N[C@H](C(=O)N1CCC[C@H]1c1nc(-c2ccc(-c3ccc(-c4c[nH]c([C@@H]5CCCN5C(=O)[C@@H](NC(=O)OC)C(C)C)n4)cc3)cc2)c[nH]1)C(C)C [Daclatasvir, reference compound]	–	17700 nM	655,556	0.027 nM	–	–
